These results are taken from patent US7112698B2, “4-(c2-6alkoxy)-substituted chalcones as therapeutic agents” (Spear Therapeutics Limited, priority 2001, dated 2006).

Like-named read-outs stand apart in the source and are kept apart here.

By IC50 is commonly meant the concentration needed to halve the response being measured.

The test system of one assay is MCF-7 cells. The assay can be described thus: MCF-7 cell line (non-induced) cytotoxicity assay, MTT. It counts as cell-based. The conditions noted are these: Homo sapiens, MCF7. The text has this:
(§1) CYP1A1 and CYP1B1 enzyme activity is induced by TCDD (tetrachlorodibenzodioxin (Dioxin)) in breast tumour MCF-7 cells (see, e.g., Sutter et al., 1994). CYP1B1 is expressed in a variety of human tumours, and can be inducible by TCDD in numerous cell types including breast, liver, lung, and kidney (see, e.g., Murray et al., 1997). CYP1B1 is known to catalyse estradiol 4-hydroxylation metabolism. In untreated culture, the constitutive rate of estradiol E2 metabolism in MCF-7 cells is minimal. However, treatment with TCDD causes a marked increase in the rate of E2 metabolism (see, e.g., Spink et al., 1994). […] Therefore the cytotoxicity of compounds in non-induced MCF-7 cells correlates to the cytotoxicity of compounds against normal cells, whilst the cytotoxicity of compounds against TCDD-induced MCF-7 cells correlates to the cytotoxicity of compounds against real tumours that express CYP1B1.
(§2) The cytotoxicity of compounds in non-induced MCF-7 cells correlates to the cytotoxicity of compounds against normal cells, whilst the cytotoxicity of compounds against TCDD-induced MCF-7 cells correlates to the cytotoxicity of compounds against real tumours that express CYP1B1.
(§3) Cells were maintained in RPMI 1640 with Glutamax 1 (Life Technologies) with 10% (v/v) heat inactivated foetal calf serum (Hybrimax. Sigma), at 37° C., 5% CO2/95% air with 100% humidity and passaged using trypsin/EDTA. 1×10^3 cells were plated out in 100 μl medium per well of 96-well flat-bottomed plates (Fisher). After 4 hours to allow adherance, 100 μl of medium containing TCDD (British Greyhound Chromatography; 10 μM stock in DMSO (dimethylsulfoxide)) or medium with 0.2% (v/v) DMSO as control was added to each well to give a final concentration of 10 nM TCDD, 0.1% (v/v) DMSO, for 24 hours to allow maximal CYP expression. The medium was then carefully aspirated and 100 μl fresh medium added. Within 30 minutes test compound was added in quadruplicate in 100 μl medium (with or without inhibitors) at double the final concentration from 100 mM stock in DMSO to give a final concentration of not more than 0.1% (v/v) DMSO, or DMSO solvent alone at 0.1% (v/v) as control. The cells were then allowed to grow on for 96 hours to give 80–90% confluence in the control wells. 50 μl MTT (Thiazol blue, Sigma) at 2 mg/ml in Dulbecco's phosphate buffered saline-A, was then added to each well for 3 hours. All medium was aspirated, then the formazan product generated by viable cells was solubilized with 150 μl DMSO. Plates were vortexed and the absorbance at 540 nm determined using a plate reader. Results were expressed as the percentage of 100% (control) proliferation and the IC50 calculated using the line of best fit for a sigmoidal dose response curve with variable slope using Graphpad Prizm software. All determinations were carried out in at least triplicate.

The subject of the next assay is TCDD-induced MCF-7 cells. The assay can be described thus: TCDD-induced MCF-7 cell line cytotoxicity assay, MTT. The class given is cell-based, human. The conditions noted are these: for IC50: Homo sapiens, MCF7, MCF-7 cells induced with 10 nM TCDD for 24 hours, 96 hours, MTT; for Tumour Selectivity Differential Factor: MCF-7 IC50 versus TCDD-induced MCF-7 IC50 (Table 1); for more toxic to “tumour” cells than to “normal” cells: TCDD-induced MCF-7 versus MCF-7.
Source text: as §1, §2
as §3, with “triplicate. […]” for “triplicate.”

The mark [1] stands for this setting: prodrug / hydroxylated metabolite illustration, read-out: IC50 in breast cancer MCF-7 cells.
[2] abbreviates: non-induced MCF-7 cells, 96 hours, MTT, read-out: MCF-7 Cells IC50.

As to `COc1cc(OC)cc(C(=O)/C=C/c2ccc(OC)c(O)c2)c1` [(E)-1-(3-Hydroxy-4-methoxyphenyl)-3-(3,5-dimethoxyphenyl)prop-1-en-3-one, reference compound], the IC50 with MCF-7 cells (setting [1]) turned out to be 0.65 nM.

Turning to `COc1ccc(/C=C/C(=O)c2cc(OC)cc(OC)c2)cc1` [(E)-1-(4-methoxyphenyl)-3-(3,5-dimethoxyphenyl)prop-1-en-3-one, reference compound], in the assay with MCF-7 cells (setting [1]), the concentration for half-maximal inhibition (IC50) stood at 690 nM.

With `CCOc1ccc(/C=C/C(=O)c2cc(OC)cc(OC)c2)cc1` [DMU-174, (E)-1-(4-ethoxyphenyl)-3-(3,5-dimethoxyphenyl)prop-1-en-3-one], the half-maximal inhibitory concentration (IC50) came out at 2000 nM in the assay on MCF-7 cells (setting [2]) and 600 nM in the assay with TCDD-induced MCF-7 cells. For the same compound, the “Tumour Selectivity Differential Factor” value in the assay on TCDD-induced MCF-7 cells is 3.

With `CCCCOc1ccc(/C=C/C(=O)c2cc(OC)cc(OC)c2)cc1` [DMU-176, (E)-1-(4-butoxyphenyl)-3-(3,5-dimethoxyphenyl)prop-1-en-3-one], the half-maximal inhibitory concentration (IC50) in the assay on MCF-7 cells (setting [2]) turned out to be 20000 nM; with TCDD-induced MCF-7 cells, 1100 nM. Besides, the “Tumour Selectivity Differential Factor” value in the assay on TCDD-induced MCF-7 cells was found to be 18.

On to `CCCOc1ccc(/C=C/C(=O)c2cc(OC)cc(OC)c2)cc1O` [DMU-185, (E)-1-(3-hydroxy-4-propoxyphenyl)-3-(3,5-dimethoxyphenyl)prop-1-en-3-one], for which the half-maximal inhibitory concentration (IC50) with MCF-7 cells (setting [2]) amounted to 8000 nM. In the assay on TCDD-induced MCF-7 cells, the IC50 was determined as 660 nM and the “Tumour Selectivity Differential Factor” value worked out at 12.

Turning to `CCCCOc1ccc(/C=C/C(=O)c2cc(OC)cc(OC)c2)cc1O` [DMU-186, (E)-1-(3-hydroxy-4-butoxyphenyl)-3-(3,5-dimethoxyphenyl)prop-1-en-3-one], in the assay with MCF-7 cells (setting [2]), the half-inhibitory concentration (IC50) amounted to 30000 nM. Also, in the assay on TCDD-induced MCF-7 cells, the IC50 turned out to be 650 nM, the “Tumour Selectivity Differential Factor” value stood at 46 and the “more toxic to “tumour” cells than to “normal” cells” value is given as 46 fold.

Consider `CCCOc1ccc(/C=C/C(=O)c2cc(OC)c(OC)c(OC)c2)cc1O` [DMU-188, (E)-1-(3-hydroxy4-propoxyphenyl)-3-(3,4,5-trimethoxyphenyl)prop-1-en-3-one], for which the concentration for half-maximal inhibition (IC50) with MCF-7 cells (setting [2]) is 4500 nM. Besides, in the assay on TCDD-induced MCF-7 cells, the IC50 was 600 nM and the “Tumour Selectivity Differential Factor” value is recorded as 8.

For `CCCCOc1ccc(/C=C/C(=O)c2cc(OC)c(OC)c(OC)c2)cc1O` [DMU-189, (E)-1-(3-hydroxy-4-butoxyphenyl)-3-(3,4,5-trimethoxyphenyl)prop-1-en-3-one], in the assay with MCF-7 cells (setting [2]), the IC50 was 8300 nM. In the assay on TCDD-induced MCF-7 cells, the half-maximal inhibitory concentration (IC50) was 2500 nM and the “Tumour Selectivity Differential Factor” value amounted to 3.

As to `CCOc1ccc(/C=C/C(=O)c2cc(OC)c(OC)c(OC)c2)cc1` [DMU-190, (E)-1-(4-ethoxyphenyl)-3-(3,4,5-trimethoxyphenyl)prop-1-en-3-one], the IC50 with MCF-7 cells (setting [2]) was found to be 750 nM. In the assay with TCDD-induced MCF-7 cells, the half-inhibitory concentration (IC50) was 390 nM and the “Tumour Selectivity Differential Factor” value is given as 2.

For the compound `CCCOc1ccc(/C=C/C(=O)c2cc(OC)c(OC)c(OC)c2)cc1` [DMU-191, (E)-1-(4-propoxyphenyl)-3-(3,4,5-trimethoxyphenyl)prop-1-en-3-one], the 50% inhibitory concentration (IC50) in the assay on MCF-7 cells (setting [2]) stood at 10000 nM. In the assay on TCDD-induced MCF-7 cells, inhibition was half-maximal at 420 nM (IC50), the “Tumour Selectivity Differential Factor” value is given as 24 and the “more toxic to “tumour” cells than to “normal” cells” value came out at 24 fold.

As for `CCCCOc1ccc(/C=C/C(=O)c2cc(OC)c(OC)c(OC)c2)cc1` [DMU-192, (E)-1-(4-butoxyphenyl)-3-(3,4,5-trimethoxyphenyl)prop-1-en-3-one], the IC50 came out at 20000 nM in the assay on MCF-7 cells (setting [2]) and 1600 nM with TCDD-induced MCF-7 cells. In addition, the “Tumour Selectivity Differential Factor” value in the assay with TCDD-induced MCF-7 cells is given as 12.

For the compound `COc1cc(OC)cc(C(=O)/C=C/c2ccc(OC(C)C)cc2)c1` [DMU-401, (E)-1-(4-isopropoxyphenyl)-3-(3,5-dimethoxyphenyl)prop-1-en-3-one], the IC50 in the assay with MCF-7 cells (setting [2]) is 6800 nM. In addition, in the assay with TCDD-induced MCF-7 cells, the IC50 is 800 nM and the “Tumour Selectivity Differential Factor” value is recorded as 9.

Regarding `COc1cc(OC)cc(C(=O)/C=C/c2ccc(OC(C)(C)C)cc2)c1` [DMU-402, (E)-1-(4-tertbutoxyphenyl)-3-(3,5-dimethoxyphenyl)prop-1-en-3-one, reference compound], the IC50 with MCF-7 cells (setting [2]) was 6200 nM. Moreover, in the assay with TCDD-induced MCF-7 cells, the IC50 was found to be 6200 nM and the “Tumour Selectivity Differential Factor” value is 1.

Regarding `CCCOc1ccc(/C=C/C(=O)c2ccc(OC)cc2OC)cc1` [DMU-408, (E)-1-(4-propoxyphenyl)-3-(2,4-dimethoxyphenyl)prop-1-en-3-one], in the assay with MCF-7 cells (setting [2]), the IC50 came out at 10000 nM. Besides, in the assay on TCDD-induced MCF-7 cells, it took 1300 nM to reach half-maximal inhibition (IC50) and the “Tumour Selectivity Differential Factor” value worked out at 8.

Turning to `CCCOc1ccc(/C=C/C(=O)c2cccc(OC)c2)cc1` [DMU-417, (E)-1-(4-propoxyphenyl)-3-(3-methoxyphenyl)prop-1-en-3-one], the concentration for half-maximal inhibition (IC50) with MCF-7 cells (setting [2]) stood at 28000 nM. For the same compound, in the assay with TCDD-induced MCF-7 cells, the IC50 is 10000 nM and the “Tumour Selectivity Differential Factor” value is 3.

For the compound `CCCOc1ccc(/C=C/C(=O)c2ccc(OC)c(OC)c2OC)cc1` [DMU-420, (E)-1-(4-propoxyphenyl)-3-(2,3,4-trimethoxyphenyl)prop-1-en-3-one], the IC50 with MCF-7 cells (setting [2]) was 20000 nM. In the assay with TCDD-induced MCF-7 cells, the midpoint of inhibition, the IC50, lay at 3700 nM and the “Tumour Selectivity Differential Factor” value was determined as 5.

For `CCCOc1ccc(/C=C/C(=O)c2cc(OC)ccc2OC)cc1` [DMU-424, (E)-1-(4-propoxyphenyl)-3-(2,5-dimethoxyphenyl)prop-1-en-3-one], the 50% inhibitory concentration (IC50) is 12000 nM in the assay with MCF-7 cells (setting [2]) and 2000 nM with TCDD-induced MCF-7 cells. The “Tumour Selectivity Differential Factor” value in the assay on TCDD-induced MCF-7 cells is listed as 6.

For the compound `CCCOc1ccc(/C=C(\C)C(=O)c2cc(OC)cc(OC)c2)cc1` [DMU-432, (E)-1-(4-propoxyphenyl)-2-methyl-3-(3,5-dimethoxyphenyl)prop-1-en-3-one], the half-maximal inhibitory concentration (IC50) with MCF-7 cells (setting [2]) came out at 700 nM. Besides, in the assay with TCDD-induced MCF-7 cells, half-maximal inhibition (IC50) was put at 80 nM and the “Tumour Selectivity Differential Factor” value is reported as 9.
